From paper PMC9055250, “Design, synthesis, and biological evaluation of new 6,N^2-diaryl-1,3,5-triazine-2,4-diamines as anticancer agents selectively targeting triple negative breast cancer cells” (RSC Advances, 2020)
Where two headings read alike, the source gives them in different places.

Experiments:
[1] = test system: MCF-10A human epithelial breast cell line; experiment: MTT in vitro cytotoxicity assay, MCF-10A; assay type: cell-based; conditions: 72 h, read-out: GI50 ± SD MCF-10A
Experimental: (§1) The synthesized compounds were tested against three breast tumor cell lines (MDA-MB231, SKBR-3 and MCF-7) and epithelial breast cell line (MCF-10A) by the MTT colorimetric assay.[29,30] All cells were obtained from the American Type Culture Collection. The cancerous cell lines were grown in Dulbecco's modified eagle medium (DMEM) supplemented with 10% fetal bovine serum (FBS) and 1% pen-strep antibiotic. The MCF-10A human epithelial breast cell line was grown in the complete mammary epithelial growth medium containing horse serum 5%, epithelial growth factor 20 ng mL^−1, hydrocortisone […], cholera toxin 100 ng mL^−1, insulin 10 μg mL^−1, and pen-step antibiotic.[31] For the cytotoxic assay, 20 to 75 × 10^3 cells per mL (based on the doubling time for each cell line) were seeded in 96-well plates and the plates were incubated overnight in a humidified air atmosphere at 37 °C in 5% CO2 incubator.
(§2) The cells were then treated with compounds at different concentrations. After 72 h of incubation, the MTT (0.5 mg mL^−1) was added to wells, followed by 4 h of incubation. The culture medium was then removed and DMSO (100 μL per well) was added and the absorbance values were measured at 570 nm using the multi-well Tecan NanoQuant, Infinite m200 Pro plate reader. Growth inhibitory values (GI50) were calculated using GraphPad Prism 7 (GraphPad Software, San Diego, USA) by nonlinear regression analysis. Three independent experiments were carried out and the data was expressed in mean ± standard deviation (SD). The concentration–response curves used for the GI50 calculation are available in ESI. ^†

[2] = test system: MDA-MB231 breast cancer cells; experiment: MTT in vitro cytotoxicity assay, MDA-MB231; assay type: cell-based; conditions: for viability at 10 µM / GI50: Homo sapiens, MDA-MB-231; for viability at 10 µM: read-out: Cell viability (%) MDA-MB231
Experimental: as §1, §2

[3] = test system: SKBR-3 breast cancer cells; experiment: MTT in vitro cytotoxicity assay, SKBR-3; assay type: cell-based; conditions: Homo sapiens; for viability at 10 µM: SK-BR-3, 10 μM, 72 h, read-out: Cell viability (%) SKBR-3; for GI50: SK-BR-3, 72 h, read-out: GI50 ± SD SKBR-3
Experimental: as §1, §2

[4] = test system: MCF-7 breast cancer cells; experiment: MTT in vitro cytotoxicity assay, MCF-7; assay type: cell-based; conditions: Homo sapiens; for viability at 10 µM: MCF7, 10 μM, 72 h, read-out: Cell viability (%) MCF-7; for GI50: MCF7, 72 h, read-out: GI50 ± SD MCF-7
Experimental: as §1, §2

[5] = 72 h, MTT, read-out: GI50 ± SD MDA-MB231
[6] = MDA-MB231, calculated from GI50, read-out: Experimental pGI50 (converted)

| SMILES | GI50 [1] | melting point | viability at 10 µM ([2]; 72 h, MTT) | GI50 [2, 5] | GI50 [2, 6] | viability at 10 µM [3] | GI50 [3] | viability at 10 µM [4] | GI50 [4] | fold increase in antiproliferative activity over regioisomer ([2]; MDA-MB231, para- vs ortho-/meta-substituted ring B (13 vs 19, 14 vs 16, 15 vs 18)) |
| --- | --- | --- | --- | --- | --- | --- | --- | --- | --- | --- |
| COc1ccccc1Nc1nc(N)nc(-c2cc(OC)c(OC)c(OC)c2)n1 [Compound 13, N ^2-(2-Methoxyphenyl)-6-(3,4,5-trimethoxyphenyl)-1,3,5-triazine-2,4-diamine] | > 20 µM | 173 to 175 °C | 16% | 2.1 ± 0.2 µM | 2.04 µM | 57% | 14 ± 1.6 µM | 100% | > 20 µM | – |
| Nc1nc(Nc2ccc(Cl)cc2)nc(-c2ccc(OC(F)(F)F)cc2)n1 [Compound 4, N ^2-(4-Chlorophenyl)-6-(4-(trifluoromethoxy)phenyl)-1,3,5-triazine-2,4-diamine] | > 20 µM | 201 to 203 °C | 34% | 16.7 ± 1.2 µM | 16.6 µM | 86% | > 20 µM | 95% | > 20 µM | – |
| COc1cc(-c2nc(N)nc(Nc3cccc(C)c3)n2)cc(OC)c1OC [Compound 15, N ^2-(3-Methylphenyl)-6-(3,4,5-trimethoxyphenyl)-1,3,5-triazine-2,4-diamine] | > 20 µM | 192 to 194 °C | 14% | 2.2 ± 0.2 µM | 2.19 µM | 43% | 6 ± 0.1 µM | 86% | > 20 µM | – |
| COc1cc(-c2nc(N)nc(Nc3ccc(OC(F)(F)F)cc3)n2)cc(OC)c1OC [Compound 20, N ^2-(4-(Trifluoromethoxy)phenyl)-6-(3,4,5-trimethoxyphenyl)-1,3,5-triazine-2,4-diamine] | > 20 µM | 179 to 181 °C | 20% | 1.5 ± 0.1 µM | 1.48 µM | 45% | 5 ± 0.35 µM | 51% | > 20 µM | – |
| COc1ccc(-c2nc(N)nc(Nc3ccc(C)cc3)n2)cc1 [Compound 9, 6-(4-Methoxyphenyl)-N^2-(4-methylphenyl)-1,3,5-triazine-2,4-diamine] | > 20 µM | 186 to 188 °C | 32% | 6.1 ± 0.6 µM | 6.17 µM | 89% | > 20 µM | 99% | > 20 µM | – |
| COc1ccc(-c2nc(N)nc(Nc3ccccc3)n2)cc1 [Compound 8, 6-(4-Methoxyphenyl)-N^2-phenyl-1,3,5-triazine-2,4-diamine] | > 20 µM | 190 to 192 °C | 28% | 8.4 ± 0.3 µM | 8.32 µM | 67% | 19.6 ± 0.9 µM | 85% | 14.2 ± 1.7 µM | – |
| COc1cc(-c2nc(N)nc(Nc3ccc(Br)cc3)n2)cc(OC)c1OC [Compound 17, N ^2-(4-Bromophenyl)-6-(3,4,5-trimethoxyphenyl)-1,3,5-triazine-2,4-diamine] | > 20 µM | 217 to 219 °C | 24% | 0.008 ± 0.0005 µM | 0.00794 µM | 43% | 0.17 ± 0.01 µM | 48% | > 20 µM | – |
| Cc1ccc(-c2nc(N)nc(Nc3ccc(Cl)cc3)n2)cc1 [Compound 7, N ^2-(4-Chlorophenyl)-6-(4-methylphenyl)-1,3,5-triazine-2,4-diamine] | > 20 µM | 202 to 204 °C | 51% | 9.6 ± 0.2 µM | 9.55 µM | 76% | > 20 µM | 95% | > 20 µM | – |
| COc1ccc(Nc2nc(N)nc(-c3cc(OC)c(OC)c(OC)c3)n2)cc1 [Compound 19, N ^2-(4-Methoxyphenyl)-6-(3,4,5-trimethoxyphenyl)-1,3,5-triazine-2,4-diamine] | > 20 µM | 195 to 197 °C | 20% | 0.01 ± 0.001 µM | 0.01 µM | 48% | 0.27 ± 0.02 µM | 52% | > 20 µM | 200 fold |
| Cc1ccc(Nc2nc(N)nc(-c3ccc(Cl)cc3)n2)cc1 [Compound 2, 6-(4-Chlorophenyl)-N^2-(4-methylphenyl)-1,3,5-triazine-2,4-diamine] | > 20 µM | 179 to 181 °C | 29% | 13.8 ± 1.9 µM | 13.8 µM | 85% | > 20 µM | 100% | > 20 µM | – |
| COc1cc(-c2nc(N)nc(Nc3ccccc3F)n2)cc(OC)c1OC [Compound 11, N ^2-(2-Fluorophenyl)-6-(3,4,5-trimethoxyphenyl)-1,3,5-triazine-2,4-diamine] | > 20 µM | 177 to 179 °C | 34% | 7.9 ± 0.5 µM | 7.94 µM | 73% | > 20 µM | 98% | > 20 µM | – |
| COc1cc(-c2nc(N)nc(Nc3cccc(Cl)c3)n2)cc(OC)c1OC [Compound 14, N ^2-(3-Chlorophenyl)-6-(3,4,5-trimethoxyphenyl)-1,3,5-triazine-2,4-diamine] | > 20 µM | 193 to 195 °C | 40% | 9.1 ± 1.1 µM | 9.12 µM | 58% | 16.7 ± 1.4 µM | 96% | > 20 µM | – |
| CN(C)c1ccc(-c2nc(N)nc(Nc3ccccc3Cl)n2)cc1 [Compound 5, N ^2-(2-Chlorophenyl)-6-(4-(dimethylamino)phenyl)-1,3,5-triazine-2,4-diamine] | > 20 µM | 191 to 193 °C | 28% | 0.1 ± 0.001 µM | 0.1 µM | 55% | 0.4 ± 0.04 µM | 86% | > 20 µM | – |
| COc1cc(-c2nc(N)nc(Nc3ccc(C(C)C)cc3)n2)cc(OC)c1OC [Compound 21, N ^2-(4-Isopropylphenyl)-6-(3,4,5-trimethoxyphenyl)-1,3,5-triazine-2,4-diamine] | > 20 µM | 190 to 192 °C | 9% | 0.04 ± 0.002 µM | 0.0398 µM | 42% | 1.1 ± 0.05 µM | 49% | 10.7 ± 1.1 µM | – |
| Cc1cn(-c2cc(NC(=O)c3ccc(C)c(Nc4nccc(-c5cccnc5)n4)c3)cc(C(F)(F)F)c2)cn1 [Nilotinib, reference compound] | – | – | – | 0.04 ± 0.001 µM | – | – | 9.6 ± 0.5 µM | – | – | – |
| Nc1nc(Nc2ccccc2Cl)nc(-c2ccc(C(F)(F)F)cc2)n1 [Compound 3, N ^2-(2-Chlorophenyl)-6-(4-(trifluoromethyl)phenyl)-1,3,5-triazine-2,4-diamine] | > 20 µM | 165 to 167 °C | 49% | 13.7 ± 0.6 µM | 13.8 µM | 83% | 17.7 ± 1.4 µM | 96% | > 20 µM | – |
| CN(Cc1cnc2nc(N)nc(N)c2n1)c1ccc(C(=O)N[C@@H](CCC(=O)O)C(=O)O)cc1 [Methotrexate, reference compound] | – | – | – | 0.01 ± 0.001 µM | – | – | – | – | 5.8 ± 0.5 µM | – |
